From patent publication US20130345215A1, “PYRAZOLOPYRIMIDONE AND PYRAZOLOPYRIDONE INHIBITORS OF TANKYRASE” (Genentech, Inc., priority 2012, published 2013)
pIC50: −log10 of the molar value.

These compounds were tested on Wnt stimulated TCF transcriptional activity, HEK293-TS 112 TCF reporter cell line (assay: Tankyrase 1 Assay (Example 119): Wnt3A-stimulated TOPbrite TCF luciferase reporter). Conditions: Compounds I-59 to I-144, procedure in Example 119 (0.5 ug/mL Wnt3A, 16 hours); read-out: TNKS1 (IC50).
Format: cell-based
Protocol: Inhibition of the Wnt stimulated TCF transcriptional activity by tankyrase inhibitors was determined utilizing a HEK293-TS 112 TCF reporter cell line. A Wnt-responsive luciferase reporter named TOPbrite was constructed by cloning the enhancer element of Super8xTOPFlash containing eight TCF/LEF binding sites into the pGL4.28 vector (Promega) upstream of the minimal promoter element, and selecting for hygromycin B resistance (50 μg/ml). Cells were seeded into 384-well plates in the presence of 0.5 ug/mL of Wnt3A at a density of 20,000 cells per well in 25 ul of F:12 DMEM media supplemented with 10% FBS and 2 mM Glutamax. Cells seeded without the addition of Wnt3A were used as background signal. Compounds of various concentrations were added to cells and incubated at 37 degrees with 5% CO2 for 16 hours. The assay was terminated with the addition of Promega Dual Glo kit per manufacturer's instructions. A ratio of TOPbrite Firefly Luciferase and SV40 Renillla Luciferase was calculated and the background from the neutral wells was subtracted yielding the final normalized measurement of TCF transcriptional activity. Compound IC50s were determined by four-parameter curve fitting using GeneData software.

Structure (SMILES) | pIC50
Cn1ncc2c(=O)[nH]c(N3CCC(c4ccncc4)CC3)nc21 [Compound I-109, 1-methyl-6-[4-(4-pyridyl)-1-piperidyl)-5H-pyrazolo[3 4-d]pyrimidin-4-one] | 7.09
Cn1ncc2c(=O)[nH]c(N3CCN(C4COC4)CC3)nc21 [Compound I-144, 1-methyl-6-[4-(oxetan-3-yl)piperazin-1-yl]-5H-pyrazolo[3 4-d]pyrimidin-4-one] | 6.08
COCCOc1cc(F)c(N2CCN(c3nc4c(cnn4C4CCS(=O)(=O)CC4)c(=O)[nH]3)CC2)c(F)c1 [Compound I-128, 6-[4-[2 6-difluoro-4-(2-methoxyethoxy)phenyl]piperazin-1-yl]-1-(1 1-dioxothian-4-yl)-5H-pyrazolo[3 4-d]pyrimidin-4-one] | 6.57
CC(C)[C@H](N)C(=O)OCCOc1cc(F)c(N2CCN(c3nc4c(cnn4C)c(=O)[nH]3)CC2)c(F)c1 [Compound I-61, 2-[3 5-difluoro-4-[4-(1-methyl-4-oxo-5H-pyrazolo[3 4-d]pyrimidin-6-yl)piperazin-1-yl]phenoxy]ethyl (2S)-2-amino-3-methyl-butanoate] | 8.38
Cn1ncc2c(=O)[nH]c(N3CCN(c4c(F)cc(O)cc4F)CC3)nc21 [Compound I-73, 6-[4-(2 6-difluoro-4-hydroxy-phenyl)piperazin-1-yl]-1-methyl-5H-pyrazolo[3 4-d]pyrimidin-4-one] | 8.06
Cn1ncc2c(=O)[nH]c(N3CCN(C4CCCCC4)CC3)nc21 [Compound I-118, 6-(4-cyclohexylpiperazin-1-yl)-1-methyl-5H-pyrazolo[3 4-d]pyrimidin-4-one] | 6.91
COCCO[C@H]1CC[C@H](N2CCN(c3nc4c(cnn4C)c(=O)[nH]3)CC2)CC1 [Compound I-121, 6-[4-[4-(2-methoxyethoxy)cyclohexyl]piperazin-1-yl]-1-methyl-5H-pyrazolo[3 4-d]pyrimidin-4-one] | 6.80
O=c1[nH]c(N2CCN(c3c(F)cccc3F)CC2)nc2[nH]ncc12 [Compound I-80, 6-[4-(2 6-difluorophenyl)piperazin-1-yl]-1 5-dihydropyrazolo[3 4-d]pyrimidin-4-one] | 7.85
Cn1ncc2c(=O)[nH]c(N3CCN(c4c(F)cc(CN5CCOCC5)cc4F)CC3)nc21 [Compound I-67, 6-[4-[2 6-difluoro-4-(morpholinomethyl)phenyl]piperazin-1-yl]-1-methyl-5H-pyrazolo[3 4-d]pyrimidin-4-one] | 8.16
Cn1ncc2c(=O)[nH]c(N3CCN(c4c(F)cc(CC(O)CO)cc4F)CC3)nc21 (centres unmarked) [Compound I-66, 6-[4-[4-(2 3-dihydroxypropyl)-2 6-difluoro-phenyl]piperazin-1-yl]-1-methyl-5H-pyrazolo[3 4-d]pyrimidin-4-one] | 8.18
COC(C)c1cc(F)c(N2CCN(c3nc4c(cnn4C)c(=O)[nH]3)CC2)c(F)c1 (centres unmarked) [Compound I-71, 6-[4-[2 6-difluoro-4-(1-methoxyethyl)phenyl]piperazin-1-yl]-1-methyl-5H-pyrazolo[3 4-d]pyrimidin-4-one] | 8.08
COCCOc1cc(F)c(N2CCN(c3nc4[nH]ncc4c(=O)[nH]3)CC2)c(F)c1 [Compound I-77, 6-[4-[2 6-difluoro-4-(2-methoxyethoxy)phenyl]piperazin-1-yl]-1 5-dihydropyrazolo[3 4-d]pyrimidin-4-one] | 7.93
COCCOc1cc(F)c(N2CCN(c3nc4c(cnn4C4CCOCC4)c(=O)[nH]3)CC2)c(F)c1 [Compound I-123, 6-[4-[2 6-difluoro-4-(2-methoxyethoxy)phenyl]piperazin-1-yl]-1-tetrahydropyran-4-yl-5H-pyrazolo[3 4-d]pyrimidin-4-one] | 6.77
Cn1ncc2c(=O)[nH]c(N3CCN(S(C)(=O)=O)CC3)nc21 [Compound I-142, 1-methyl-6-(4-methylsulfonylpiperazin-1-yl)-5H-pyrazolo[3 4-d]pyrimidin-4-one] | 6.13
C[C@H](N)C(=O)OCCOc1cc(F)c(N2CCN(c3nc4c(cnn4C)c(=O)[nH]3)CC2)c(F)c1 [Compound I-59, 2-[3 5-difluoro-4-[4-(1-methyl-4-oxo-5H-pyrazolo[3 4-d]pyrimidin-6-yl)piperazin-1-yl]phenoxy]ethyl (2S)-2-aminopropanoate] | 8.43
Cn1cncc1C1CCN(c2nc3c(cnn3C)c(=O)[nH]2)C1 (centres unmarked) [Compound I-114, 1-methyl-6-[3-(3-methylimidazol-4-yl)pyrrolidin-1-yl]-5H-pyrazolo[3 4-d]pyrimidin-4-one] | 7.04
COCCOc1cc(F)c(N2CCN(c3nc4c(cnn4CCCO)c(=O)[nH]3)CC2)c(F)c1 [Compound I-95, 6-[4-[2 6-difluoro-4-(2-methoxyethoxy)phenyl]piperazin-1-yl]-1-(3-hydroxypropyl)-5H-pyrazolo[3 4-d]pyrimidin-4-one] | 7.57
Cc1noc(C2(C)CCN(c3nc4c(cnn4C)c(=O)[nH]3)CC2)n1 [Compound I-91, 1-methyl-6-[4-methyl-4-(3-methyl-1 2 4-oxadiazol-5-yl)-1-piperidyl]-5H-pyrazolo[3 4-d]pyrimidin-4-one] | 7.62
Cn1ncc2c(=O)[nH]c(N3CCN(c4c(F)cc(OC5CC[S+]([O-])CC5)cc4F)CC3)nc21 (centres unmarked) [Compound I-87, 6-[4-[2 6-difluoro-4-(1-oxothian-4-yl)oxy-phenyl]piperazin-1-yl]-1-methyl-5H-pyrazolo[3 4-d]pyrimidin-4-one] | 7.73
Cn1ncc2c(=O)[nH]c(N3CCC(Cc4ccccn4)CC3)nc21 [Compound I-117, 1-methyl-6-[4-(2-pyridylmethyl)-1-piperidyl]-5H-pyrazolo[3 4-d]pyrimidin-4-one] | 6.95
COCCOc1cc(F)c(C2(C#N)CCN(c3nc4c(cnn4C)c(=O)[nH]3)CC2)c(F)c1 [Compound I-86, 4-[2 6-difluoro-4-(2-methoxyethoxy)phenyl]-1-(1-methyl-4-oxo-5H-pyrazolo[3 4-d]pyrimidin-6-yl)piperidine-4-carbonitrile] | 7.73
COCCO[C@H]1CC[C@@H](N2CCN(c3nc4c(cnn4C)c(=O)[nH]3)CC2)CC1 [Compound I-136, 6-[4-[4-(2-methoxyethoxy)cyclohexyl]piperazin-1-yl]-1-methyl-5H-pyrazolo[3 4-d]pyrimidin-4-one] | 6.33
Cn1ncc2c(=O)[nH]c(N3CCN(c4c(F)cc(OCCO)cc4F)CC3)nc21 [Compound I-78, 6-[4-[2 6-difluoro-4-(2-hydroxyethoxy)phenyl]piperazin-1-yl]-1-methyl-5H-pyrazolo[3 4-d]pyrimidin-4-one] | 7.92
